{
  "source": "paper PMC12090182",
  "about": "“Repurposing of the RIPK1-Selective Benzo[1,4]oxazepin-4-one Scaffold for the Development of a Type III LIMK1/2 Inhibitor” (ACS Chemical Biology, 2025)",
  "assay_type_in_all_cases": "cell-based",
  "details_in_all_cases": "HEK-293T; 1 μM inhibitor, HEK293T cells",
  "key": {"EPHA1": {"biological_target": "EPHA1 (Homo sapiens, UniProt P21709)", "procedure": "(§1) For plate preparation, a transfection mix was prepared in white 384-well small-volume plates (Greiner, cat. no. 784075) by preplating 3 μL of 20 μL/mL FuGene HD (Promega, cat. no. E2311), diluted in an Opti-MEM medium (Gibco, cat. no. 11058-021). One μL of DNA from both DNA vector source plates of the K192 kit was added using an Echo 550 acoustic dispenser (Beckman Coulter). The mix was incubated for 30 min, and 6 μL of HEK293T cells in an Opti-MEM medium was added. The proteins were allowed to express for 20 h. After expression, Tracer K10 was added using the concentrations recommended in the K192 technical manual and a 1 μM inhibitor was added to every second well. […] Five μL of substrate solution was added to every well, and filtered luminescence was measured on a PHERAstar plate reader (BMG Labtech) equipped with a luminescence filter pair (450 nm BP filter (donor) and a 610 nm LP filter (acceptor)). For every kinase, occupancy was calculated and plotted using GraphPad Prism 10 (Table S5)."}, "MAP3K12": {"biological_target": "MAP3K12 (Homo sapiens, UniProt Q12852)", "procedure": "as §1"}, "MLTK": {"biological_target": "MLTK (Homo sapiens, UniProt Q9NYL2)", "procedure": "as §1"}, "BMP2K": {"biological_target": "BMP2K (Homo sapiens, UniProt Q9NSY1)", "procedure": "as §1"}, "NEK9": {"biological_target": "NEK9 (Homo sapiens, UniProt Q8TD19)", "procedure": "as §1"}, "TEK": {"biological_target": "TEK (Homo sapiens, UniProt Q02763)", "procedure": "as §1"}, "AURKB": {"biological_target": "AURKB (Homo sapiens, UniProt Q96GD4)", "procedure": "as §1"}, "CAMK2D": {"biological_target": "CAMK2D (Homo sapiens, UniProt Q13557)", "procedure": "as §1"}, "PHKG2": {"biological_target": "PHKG2 (Homo sapiens, UniProt P15735)", "procedure": "as §1"}, "DAPK2": {"biological_target": "DAPK2 (Homo sapiens, UniProt Q9UIK4)", "procedure": "as §1"}, "CDK7": {"biological_target": "CDK7 (Homo sapiens, UniProt P50613)", "procedure": "as §1"}, "FYN": {"biological_target": "FYN (Homo sapiens, UniProt P06241)", "procedure": "as §1"}, "HIPK4": {"biological_target": "HIPK4 (Homo sapiens, UniProt Q8NE63)", "procedure": "as §1"}, "MAP3K19": {"biological_target": "MAP3K19 (Homo sapiens, UniProt Q56UN5)", "procedure": "as §1"}, "MAP4K2": {"biological_target": "MAP4K2 (Homo sapiens, UniProt Q12851)", "procedure": "as §1"}, "SIK1": {"biological_target": "SIK1 (Homo sapiens, UniProt P57059)", "procedure": "as §1"}, "PKMYT1": {"biological_target": "PKMYT1 (Homo sapiens, UniProt Q99640)", "sequence (Q99640 whole entry)": "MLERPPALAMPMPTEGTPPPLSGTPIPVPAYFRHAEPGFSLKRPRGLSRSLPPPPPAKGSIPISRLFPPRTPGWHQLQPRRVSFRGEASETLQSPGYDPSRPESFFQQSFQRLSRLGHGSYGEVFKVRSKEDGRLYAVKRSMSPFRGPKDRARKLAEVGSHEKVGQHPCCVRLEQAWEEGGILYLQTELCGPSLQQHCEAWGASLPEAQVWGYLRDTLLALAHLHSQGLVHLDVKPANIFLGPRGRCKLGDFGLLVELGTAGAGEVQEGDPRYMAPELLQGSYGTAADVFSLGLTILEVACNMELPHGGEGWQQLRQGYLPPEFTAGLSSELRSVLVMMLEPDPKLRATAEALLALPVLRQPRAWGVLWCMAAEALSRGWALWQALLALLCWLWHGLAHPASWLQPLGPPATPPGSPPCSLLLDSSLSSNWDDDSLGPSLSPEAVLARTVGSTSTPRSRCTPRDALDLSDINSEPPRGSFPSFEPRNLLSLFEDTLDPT", "procedure": "as §1"}, "MAP3K11": {"biological_target": "MAP3K11 (Homo sapiens, UniProt Q16584)", "procedure": "as §1"}, "FLT3": {"biological_target": "FLT3 (Homo sapiens, UniProt P36888)", "procedure": "as §1"}, "MUSK": {"biological_target": "MUSK (Homo sapiens, UniProt O15146)", "procedure": "as §1"}, "PRKACA": {"biological_target": "PRKACA (Homo sapiens, UniProt P17612)", "procedure": "as §1"}, "CSNK1A1L": {"biological_target": "CSNK1A1L (Homo sapiens, UniProt Q8N752)", "procedure": "as §1"}, "NUAK1": {"biological_target": "NUAK1 (Homo sapiens, UniProt O60285)", "procedure": "as §1"}, "PLK4": {"biological_target": "PLK4 (Homo sapiens, UniProt O00444)", "sequence (O00444 whole entry)": "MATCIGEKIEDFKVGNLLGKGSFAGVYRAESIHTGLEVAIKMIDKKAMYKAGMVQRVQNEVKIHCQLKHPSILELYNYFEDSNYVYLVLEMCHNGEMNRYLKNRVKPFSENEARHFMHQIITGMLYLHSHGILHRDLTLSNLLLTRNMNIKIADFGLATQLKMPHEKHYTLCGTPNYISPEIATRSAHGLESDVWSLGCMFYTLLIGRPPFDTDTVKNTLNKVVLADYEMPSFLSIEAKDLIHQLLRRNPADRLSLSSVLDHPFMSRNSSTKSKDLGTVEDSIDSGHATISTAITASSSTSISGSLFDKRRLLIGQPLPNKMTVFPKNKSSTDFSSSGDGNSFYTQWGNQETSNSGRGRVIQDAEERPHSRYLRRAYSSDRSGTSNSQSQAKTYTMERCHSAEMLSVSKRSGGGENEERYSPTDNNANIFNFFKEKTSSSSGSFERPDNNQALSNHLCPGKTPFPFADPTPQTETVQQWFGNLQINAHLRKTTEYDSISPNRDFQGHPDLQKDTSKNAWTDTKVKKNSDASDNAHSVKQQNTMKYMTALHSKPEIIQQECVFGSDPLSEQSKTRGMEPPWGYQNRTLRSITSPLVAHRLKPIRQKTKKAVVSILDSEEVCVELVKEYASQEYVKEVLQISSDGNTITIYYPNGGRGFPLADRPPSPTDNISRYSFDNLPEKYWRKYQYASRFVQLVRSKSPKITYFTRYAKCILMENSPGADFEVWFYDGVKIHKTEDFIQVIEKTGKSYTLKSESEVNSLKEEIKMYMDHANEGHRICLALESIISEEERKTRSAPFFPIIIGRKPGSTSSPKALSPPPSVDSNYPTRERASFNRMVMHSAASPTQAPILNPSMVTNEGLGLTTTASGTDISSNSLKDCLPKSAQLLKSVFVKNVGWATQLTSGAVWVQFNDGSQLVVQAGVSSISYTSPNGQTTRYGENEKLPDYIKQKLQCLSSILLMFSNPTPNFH", "procedure": "as §1"}, "RPS6KA4": {"biological_target": "RPS6KA4 (Homo sapiens, UniProt O75676)", "procedure": "as §1"}, "CHEK2": {"biological_target": "CHEK2 (Homo sapiens, UniProt O96017)", "procedure": "as §1"}, "MELK": {"biological_target": "MELK (Homo sapiens, UniProt Q14680)", "sequence (Q14680 whole entry)": "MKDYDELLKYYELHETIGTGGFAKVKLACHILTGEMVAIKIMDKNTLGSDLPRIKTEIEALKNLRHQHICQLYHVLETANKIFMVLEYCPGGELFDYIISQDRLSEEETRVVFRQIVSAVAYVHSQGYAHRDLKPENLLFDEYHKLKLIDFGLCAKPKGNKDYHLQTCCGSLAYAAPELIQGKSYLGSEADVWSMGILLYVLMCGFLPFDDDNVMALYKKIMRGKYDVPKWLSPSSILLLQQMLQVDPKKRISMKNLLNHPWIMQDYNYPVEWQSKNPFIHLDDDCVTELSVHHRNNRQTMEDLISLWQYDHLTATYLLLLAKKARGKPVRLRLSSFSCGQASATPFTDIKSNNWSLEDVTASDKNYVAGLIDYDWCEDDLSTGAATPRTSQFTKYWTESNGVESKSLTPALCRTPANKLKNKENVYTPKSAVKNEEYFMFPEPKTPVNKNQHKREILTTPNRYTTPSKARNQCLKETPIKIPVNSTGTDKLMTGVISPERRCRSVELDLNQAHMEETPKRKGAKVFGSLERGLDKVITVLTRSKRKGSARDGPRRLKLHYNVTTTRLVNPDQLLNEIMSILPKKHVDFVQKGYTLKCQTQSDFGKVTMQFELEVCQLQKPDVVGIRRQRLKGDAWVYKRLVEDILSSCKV", "procedure": "as §1"}, "PTK2B": {"biological_target": "PTK2B (Homo sapiens, UniProt Q14289)", "procedure": "as §1"}, "CDK17": {"biological_target": "CDK17 (Homo sapiens, UniProt Q00537)", "procedure": "as §1"}, "EPHB1": {"biological_target": "EPHB1 (Homo sapiens, UniProt P54762)", "sequence (P54762 18-984)": "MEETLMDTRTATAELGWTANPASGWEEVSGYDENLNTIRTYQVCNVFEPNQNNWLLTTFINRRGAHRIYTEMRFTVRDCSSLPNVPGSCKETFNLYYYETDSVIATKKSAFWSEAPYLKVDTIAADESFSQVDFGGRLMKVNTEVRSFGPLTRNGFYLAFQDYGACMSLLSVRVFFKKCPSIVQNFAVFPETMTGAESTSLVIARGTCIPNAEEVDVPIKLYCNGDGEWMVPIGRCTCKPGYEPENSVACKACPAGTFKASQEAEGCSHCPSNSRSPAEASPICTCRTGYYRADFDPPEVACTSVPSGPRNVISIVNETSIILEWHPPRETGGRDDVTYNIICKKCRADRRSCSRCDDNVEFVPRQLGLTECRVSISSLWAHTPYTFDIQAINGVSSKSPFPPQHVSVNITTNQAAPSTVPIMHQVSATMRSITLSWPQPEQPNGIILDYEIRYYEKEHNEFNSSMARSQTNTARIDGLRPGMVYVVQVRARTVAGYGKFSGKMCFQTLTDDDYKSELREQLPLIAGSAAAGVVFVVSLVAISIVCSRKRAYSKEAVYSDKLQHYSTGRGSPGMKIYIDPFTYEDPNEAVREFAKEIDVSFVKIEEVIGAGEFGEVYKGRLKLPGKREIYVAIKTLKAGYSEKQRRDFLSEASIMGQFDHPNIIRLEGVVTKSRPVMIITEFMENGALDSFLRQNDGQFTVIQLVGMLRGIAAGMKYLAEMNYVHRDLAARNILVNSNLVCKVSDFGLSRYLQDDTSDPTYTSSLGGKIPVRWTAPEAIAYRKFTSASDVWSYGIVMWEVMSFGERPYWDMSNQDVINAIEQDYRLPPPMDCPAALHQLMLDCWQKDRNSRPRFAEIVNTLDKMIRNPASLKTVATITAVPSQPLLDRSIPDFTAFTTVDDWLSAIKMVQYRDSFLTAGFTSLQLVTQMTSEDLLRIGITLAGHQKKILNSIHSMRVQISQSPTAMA", "procedure": "as §1"}, "RIPK2": {"biological_target": "RIPK2 (Homo sapiens, UniProt O43353)", "sequence (O43353 whole entry)": "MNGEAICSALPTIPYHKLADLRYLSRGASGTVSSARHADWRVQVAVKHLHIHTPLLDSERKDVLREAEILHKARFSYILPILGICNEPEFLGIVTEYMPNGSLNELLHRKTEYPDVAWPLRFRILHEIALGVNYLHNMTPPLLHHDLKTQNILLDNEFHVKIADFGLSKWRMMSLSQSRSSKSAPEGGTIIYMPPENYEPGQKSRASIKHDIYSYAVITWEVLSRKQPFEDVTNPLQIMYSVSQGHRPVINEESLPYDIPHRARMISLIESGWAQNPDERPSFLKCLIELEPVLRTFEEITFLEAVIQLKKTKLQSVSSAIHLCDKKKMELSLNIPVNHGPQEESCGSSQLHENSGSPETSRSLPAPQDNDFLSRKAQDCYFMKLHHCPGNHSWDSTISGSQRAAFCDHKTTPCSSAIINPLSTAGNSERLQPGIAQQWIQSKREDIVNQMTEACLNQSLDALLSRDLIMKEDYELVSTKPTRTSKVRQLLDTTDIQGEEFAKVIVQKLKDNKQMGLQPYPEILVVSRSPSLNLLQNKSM", "procedure": "as §1"}, "SNRK": {"biological_target": "SNRK (Homo sapiens, UniProt Q9NRH2)", "sequence (Q9NRH2 whole entry)": "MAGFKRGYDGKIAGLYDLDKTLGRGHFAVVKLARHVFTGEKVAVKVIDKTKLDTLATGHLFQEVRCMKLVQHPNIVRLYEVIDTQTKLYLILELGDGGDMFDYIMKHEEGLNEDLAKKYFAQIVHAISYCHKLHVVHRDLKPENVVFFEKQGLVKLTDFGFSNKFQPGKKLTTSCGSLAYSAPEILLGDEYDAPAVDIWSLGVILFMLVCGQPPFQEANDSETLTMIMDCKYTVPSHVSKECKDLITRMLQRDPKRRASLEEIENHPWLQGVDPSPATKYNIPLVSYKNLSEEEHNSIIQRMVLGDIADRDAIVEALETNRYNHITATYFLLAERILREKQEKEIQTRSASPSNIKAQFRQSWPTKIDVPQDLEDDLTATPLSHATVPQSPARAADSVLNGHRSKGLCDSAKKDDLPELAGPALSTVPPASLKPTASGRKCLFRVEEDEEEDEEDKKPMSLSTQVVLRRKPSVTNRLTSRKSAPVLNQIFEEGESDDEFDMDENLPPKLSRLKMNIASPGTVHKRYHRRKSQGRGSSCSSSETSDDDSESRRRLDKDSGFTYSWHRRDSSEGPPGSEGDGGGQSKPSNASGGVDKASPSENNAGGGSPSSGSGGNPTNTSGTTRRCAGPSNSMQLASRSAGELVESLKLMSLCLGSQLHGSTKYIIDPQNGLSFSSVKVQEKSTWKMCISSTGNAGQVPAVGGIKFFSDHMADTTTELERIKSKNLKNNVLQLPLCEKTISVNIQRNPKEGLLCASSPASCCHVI", "procedure": "as §1"}, "CDKL3": {"biological_target": "CDKL3 (Homo sapiens, UniProt Q8IVW4)", "sequence (Q8IVW4 whole entry)": "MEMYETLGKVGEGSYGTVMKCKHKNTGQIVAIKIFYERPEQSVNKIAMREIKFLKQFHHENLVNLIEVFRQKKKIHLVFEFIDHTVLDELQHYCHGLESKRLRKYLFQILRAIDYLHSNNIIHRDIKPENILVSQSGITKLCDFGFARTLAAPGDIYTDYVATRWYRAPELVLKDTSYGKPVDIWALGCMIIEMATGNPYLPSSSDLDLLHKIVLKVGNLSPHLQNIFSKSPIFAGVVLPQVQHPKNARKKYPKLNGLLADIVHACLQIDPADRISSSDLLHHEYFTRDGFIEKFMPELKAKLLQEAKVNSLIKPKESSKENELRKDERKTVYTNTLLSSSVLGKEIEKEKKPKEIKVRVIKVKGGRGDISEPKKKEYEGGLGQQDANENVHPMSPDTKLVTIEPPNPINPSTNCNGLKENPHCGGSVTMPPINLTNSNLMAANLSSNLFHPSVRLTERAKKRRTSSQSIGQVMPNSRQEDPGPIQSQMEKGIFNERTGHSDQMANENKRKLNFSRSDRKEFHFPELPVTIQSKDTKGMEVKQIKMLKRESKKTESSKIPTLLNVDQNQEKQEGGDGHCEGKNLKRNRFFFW", "procedure": "as §1"}, "RON": {"biological_target": "RON (Homo sapiens, UniProt Q04912)", "procedure": "as §1"}, "ULK2": {"biological_target": "ULK2 (Homo sapiens, UniProt Q8IYT8)", "procedure": "as §1"}, "RET": {"biological_target": "RET (Homo sapiens, UniProt P07949)", "procedure": "as §1"}, "CDK16": {"biological_target": "CDK16 (Homo sapiens, UniProt Q00536)", "procedure": "as §1"}},
  "data": [
    {"smiles": "CN1C(=O)[C@@H](N2CCc3c(nn(Cc4ccccc4)c3C(N)=O)C2=O)COc2cc(Cl)ccc21", "note": "[Compound 10, (S)-2-benzyl-6-(8-chloro-5-methyl-4-oxo-2,3,4,5-tetrahydrobenzo[b][1,4]oxazepin-3-yl)-7-oxo-4,5,6,7-tetrahydro-2H-pyrazolo[3,4-c]pyridine-3-carboxamide]", "values": [
      {"measurement": "receptor occupancy at 1 µM", "setting": "EPHA1", "value": 2.07, "unit": "%"},
      {"measurement": "receptor occupancy at 1 µM", "setting": "MAP3K12", "value": -2.26, "unit": "%"},
      {"measurement": "receptor occupancy at 1 µM", "setting": "MLTK", "value": -2.56, "unit": "%"},
      {"measurement": "receptor occupancy at 1 µM", "setting": "BMP2K", "value": -6.67, "unit": "%"},
      {"measurement": "receptor occupancy at 1 µM", "setting": "NEK9", "value": 3.71, "unit": "%"},
      {"measurement": "receptor occupancy at 1 µM", "setting": "TEK", "value": 9.13, "unit": "%"},
      {"measurement": "receptor occupancy at 1 µM", "setting": "AURKB", "value": -2.1, "unit": "%"},
      {"measurement": "receptor occupancy at 1 µM", "setting": "CAMK2D", "value": 5.75, "unit": "%"},
      {"measurement": "receptor occupancy at 1 µM", "setting": "PHKG2", "value": -1.01, "unit": "%"},
      {"measurement": "receptor occupancy at 1 µM", "setting": "DAPK2", "value": -5.62, "unit": "%"},
      {"measurement": "receptor occupancy at 1 µM", "setting": "CDK7", "value": -11.3, "unit": "%"},
      {"measurement": "receptor occupancy at 1 µM", "setting": "FYN", "value": 5.88, "unit": "%"},
      {"measurement": "receptor occupancy at 1 µM", "setting": "HIPK4", "value": 1.53, "unit": "%"},
      {"measurement": "receptor occupancy at 1 µM", "setting": "MAP3K19", "value": 10.7, "unit": "%"},
      {"measurement": "receptor occupancy at 1 µM", "setting": "MAP4K2", "value": -0.43, "unit": "%"},
      {"measurement": "receptor occupancy at 1 µM", "setting": "SIK1", "value": -3.59, "unit": "%"},
      {"measurement": "receptor occupancy at 1 µM", "setting": "PKMYT1", "value": -7.45, "unit": "%"},
      {"measurement": "receptor occupancy at 1 µM", "setting": "MAP3K11", "value": -27.3, "unit": "%"},
      {"measurement": "receptor occupancy at 1 µM", "setting": "FLT3", "value": -3.18, "unit": "%"},
      {"measurement": "receptor occupancy at 1 µM", "setting": "MUSK", "value": -11.5, "unit": "%"},
      {"measurement": "receptor occupancy at 1 µM", "setting": "PRKACA", "value": -2.16, "unit": "%"},
      {"measurement": "receptor occupancy at 1 µM", "setting": "CSNK1A1L", "value": 10.7, "unit": "%"},
      {"measurement": "receptor occupancy at 1 µM", "setting": "NUAK1", "value": -4.45, "unit": "%"},
      {"measurement": "receptor occupancy at 1 µM", "setting": "PLK4", "value": 10.7, "unit": "%"},
      {"measurement": "receptor occupancy at 1 µM", "setting": "RPS6KA4", "value": 7.5, "unit": "%"},
      {"measurement": "receptor occupancy at 1 µM", "setting": "CHEK2", "value": -1.73, "unit": "%"},
      {"measurement": "receptor occupancy at 1 µM", "setting": "MELK", "value": 13.7, "unit": "%"},
      {"measurement": "receptor occupancy at 1 µM", "setting": "PTK2B", "value": -1.12, "unit": "%"},
      {"measurement": "receptor occupancy at 1 µM", "setting": "CDK17", "value": 4.13, "unit": "%"},
      {"measurement": "receptor occupancy at 1 µM", "setting": "EPHB1", "value": 0.755, "unit": "%"},
      {"measurement": "receptor occupancy at 1 µM", "setting": "RIPK2", "value": -1.2, "unit": "%"},
      {"measurement": "receptor occupancy at 1 µM", "setting": "SNRK", "value": 7.74, "unit": "%"},
      {"measurement": "receptor occupancy at 1 µM", "setting": "CDKL3", "value": 4.18, "unit": "%"},
      {"measurement": "receptor occupancy at 1 µM", "setting": "RON", "value": 0.288, "unit": "%"},
      {"measurement": "receptor occupancy at 1 µM", "setting": "ULK2", "value": 2.12, "unit": "%"},
      {"measurement": "receptor occupancy at 1 µM", "setting": "RET", "value": -7.79, "unit": "%"},
      {"measurement": "receptor occupancy at 1 µM", "setting": "CDK16", "value": -2.19, "unit": "%"}
    ]}
  ]
}
